Tested on: H10NX AIVs NA activity
Format: biochemical

CC(=O)N[C@H]1[C@H]([C@H](O)[C@H](O)CO)OC(C(=O)O)=C[C@@H]1N=C(N)N [Zanamivir, zanamivir]
susceptibility of H10NX isolates to the drug (phenotypic assay): sensitive
IC50 (read-out: mean IC50 values, range over the H10NX isolates tested): 0.7 to 1.3 nM

From PMC12654176 (Microorganisms, 2025)
